Measurements published in PubChem BioAssay (NCI).
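Five concentrations, 48 hours, 96-well plates. Definition used: TGI = concentration required for complete inhibition of growth.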

What was measured:
Test in all cases: NCI-60 cell line screen, 48 h
HS 578T breast = test system: HS 578T breast
U251 CNS = test system: U251 CNS
M14 melanoma = test system: M14 melanoma
MOLT-4 leukemia = test system: MOLT-4 leukemia
HL-60(TB) leukemia = test system: HL-60(TB) leukemia
MDA-N = test system: MDA-N
NCI-H226 lung = test system: NCI-H226 lung
NCI-H522 lung = test system: NCI-H522 lung
NCI-H23 lung = test system: NCI-H23 lung
UACC-62 melanoma = test system: UACC-62 melanoma
NCI-H460 lung = test system: NCI-H460 lung
SK-MEL-5 melanoma = test system: SK-MEL-5 melanoma
HCT-15 colon = test system: HCT-15 colon
SNB-19 CNS = test system: SNB-19 CNS
K-562 leukemia = test system: K-562 leukemia
HOP-62 NSCLC = test system: HOP-62 NSCLC
SK-MEL-28 melanoma = test system: SK-MEL-28 melanoma
HCC-2998 colon = test system: HCC-2998 colon
EKVX NSCLC = test system: EKVX NSCLC
OVCAR-5 ovarian = test system: OVCAR-5 ovarian
NCI/ADR-RES ovarian = test system: NCI/ADR-RES ovarian
SK-MEL-2 melanoma = test system: SK-MEL-2 melanoma
OVCAR-8 ovarian = test system: OVCAR-8 ovarian
786-0 renal = test system: 786-0 renal
UO-31 renal = test system: UO-31 renal
OVCAR-3 ovarian = test system: OVCAR-3 ovarian
TK-10 renal = test system: TK-10 renal
SF-295 CNS = test system: SF-295 CNS
ACHN renal = test system: ACHN renal
SNB-75 CNS = test system: SNB-75 CNS
MCF7 breast = test system: MCF7 breast
HOP-92 NSCLC = test system: HOP-92 NSCLC
SR leukemia = test system: SR leukemia
PC-3 prostate = test system: PC-3 prostate
MDA-MB-435 = test system: MDA-MB-435
IGROV1 ovarian = test system: IGROV1 ovarian
MALME-3M melanoma = test system: MALME-3M melanoma
SK-OV-3 ovarian = test system: SK-OV-3 ovarian
UACC-257 melanoma = test system: UACC-257 melanoma
KM12 colon = test system: KM12 colon
T-47D breast = test system: T-47D breast
SN12C renal = test system: SN12C renal
COLO 205 colon = test system: COLO 205 colon
MDA-MB-231 breast = test system: MDA-MB-231 breast
OVCAR-4 ovarian = test system: OVCAR-4 ovarian
RXF 393 renal = test system: RXF 393 renal
A549 NSCLC = test system: A549 NSCLC
CCRF-CEM leukemia = test system: CCRF-CEM leukemia
LOX IMVI melanoma = test system: LOX IMVI melanoma
HT29 colon = test system: HT29 colon
CAKI-1 renal = test system: CAKI-1 renal
SF-268 CNS = test system: SF-268 CNS
HCT-116 colon = test system: HCT-116 colon
DU-145 prostate = test system: DU-145 prostate
SF-539 CNS = test system: SF-539 CNS
SW-620 colon = test system: SW-620 colon
RPMI-8226 leukemia = test system: RPMI-8226 leukemia
A498 renal = test system: A498 renal

SMILES: CCN(CC)CC1CCCCN1CC(=O)N1c2ccccc2NC(=O)c2ccccc21 (stereo unspecified)
- TGI (HS 578T breast): > 100 µM
- TGI (U251 CNS): > 100 µM
- TGI (M14 melanoma): > 100 µM
- TGI (MOLT-4 leukemia): > 100 µM
- TGI (HL-60(TB) leukemia): > 100 µM
- TGI (MDA-N): > 100 µM
- TGI (NCI-H226 lung): > 100 µM
- TGI (NCI-H522 lung): > 100 µM
- TGI (NCI-H23 lung): > 100 µM
- TGI (UACC-62 melanoma): > 100 µM
- TGI (NCI-H460 lung): > 100 µM
- TGI (SK-MEL-5 melanoma): > 100 µM
- TGI (HCT-15 colon): > 100 µM
- TGI (SNB-19 CNS): > 100 µM
- TGI (K-562 leukemia): > 100 µM
- TGI (HOP-62 NSCLC): > 100 µM
- TGI (SK-MEL-28 melanoma): > 100 µM
- TGI (HCC-2998 colon): > 100 µM
- TGI (EKVX NSCLC): > 100 µM
- TGI (OVCAR-5 ovarian): > 100 µM
- TGI (NCI/ADR-RES ovarian): > 100 µM
- TGI (SK-MEL-2 melanoma): > 100 µM
- TGI (OVCAR-8 ovarian): > 100 µM
- TGI (786-0 renal): > 100 µM
- TGI (UO-31 renal): 44.5 µM
- TGI (OVCAR-3 ovarian): > 100 µM
- TGI (TK-10 renal): > 100 µM
- TGI (SF-295 CNS): > 100 µM
- TGI (ACHN renal): > 100 µM
- TGI (SNB-75 CNS): > 100 µM
- TGI (MCF7 breast): > 100 µM
- TGI (HOP-92 NSCLC): > 100 µM
- TGI (SR leukemia): > 100 µM
- TGI (PC-3 prostate): > 100 µM
- TGI (MDA-MB-435): > 100 µM
- TGI (IGROV1 ovarian): > 100 µM
- TGI (MALME-3M melanoma): > 100 µM
- TGI (SK-OV-3 ovarian): > 100 µM
- TGI (UACC-257 melanoma): > 100 µM
- TGI (KM12 colon): > 100 µM
- TGI (T-47D breast): > 100 µM
- TGI (SN12C renal): > 100 µM
- TGI (COLO 205 colon): > 100 µM
- TGI (MDA-MB-231 breast): > 100 µM
- TGI (OVCAR-4 ovarian): > 100 µM
- TGI (RXF 393 renal): > 100 µM
- TGI (A549 NSCLC): > 100 µM
- TGI (CCRF-CEM leukemia): > 100 µM
- TGI (LOX IMVI melanoma): > 100 µM
- TGI (HT29 colon): > 100 µM
- TGI (CAKI-1 renal): > 100 µM
- TGI (SF-268 CNS): > 100 µM
- TGI (HCT-116 colon): > 100 µM
- TGI (DU-145 prostate): > 100 µM
- TGI (SF-539 CNS): > 100 µM
- TGI (SW-620 colon): > 100 µM
- TGI (RPMI-8226 leukemia): > 100 µM
- TGI (A498 renal): > 100 µM

SMILES: COc1ccc(Cc2c(-c3ccc(C)cc3)n[nH]c(=O)c2C2C(=O)N(c3ccccc3)N=C2c2ccccc2)cc1 (stereo unspecified)
- TGI (HS 578T breast): 82.9 µM
- TGI (U251 CNS): > 100 µM
- TGI (M14 melanoma): 81.8 µM
- TGI (MOLT-4 leukemia): > 67.7 µM
- TGI (HL-60(TB) leukemia): 67.6 µM
- TGI (MDA-N): 58.3 µM
- TGI (NCI-H226 lung): 81.9 µM
- TGI (NCI-H522 lung): > 100 µM
- TGI (NCI-H23 lung): 72.1 µM
- TGI (UACC-62 melanoma): 40.4 µM
- TGI (NCI-H460 lung): > 89.3 µM
- TGI (SK-MEL-5 melanoma): 38.9 µM
- TGI (HCT-15 colon): > 100 µM
- TGI (SNB-19 CNS): > 100 µM
- TGI (K-562 leukemia): > 76.6 µM
- TGI (HOP-62 NSCLC): > 100 µM
- TGI (SK-MEL-28 melanoma): > 90.3 µM
- TGI (HCC-2998 colon): 79.5 µM
- TGI (EKVX NSCLC): 83.1 µM
- TGI (OVCAR-5 ovarian): > 95.7 µM
- TGI (NCI/ADR-RES ovarian): 58 µM
- TGI (SK-MEL-2 melanoma): 52.5 µM
- TGI (OVCAR-8 ovarian): > 96.6 µM
- TGI (786-0 renal): > 100 µM
- TGI (UO-31 renal): > 100 µM
- TGI (OVCAR-3 ovarian): 45.8 µM
- TGI (TK-10 renal): 87.2 µM
- TGI (SF-295 CNS): 60.8 µM
- TGI (ACHN renal): > 100 µM
- TGI (SNB-75 CNS): 81.3 µM
- TGI (MCF7 breast): > 91.3 µM
- TGI (HOP-92 NSCLC): 75.3 µM
- TGI (SR leukemia): > 79.3 µM
- TGI (PC-3 prostate): > 91.8 µM
- TGI (MDA-MB-435): 45 µM
- TGI (IGROV1 ovarian): 85.1 µM
- TGI (MALME-3M melanoma): 65.2 µM
- TGI (SK-OV-3 ovarian): > 100 µM
- TGI (UACC-257 melanoma): 81.2 µM
- TGI (KM12 colon): 57.1 µM
- TGI (T-47D breast): > 100 µM
- TGI (SN12C renal): > 95.6 µM
- TGI (COLO 205 colon): 40.3 µM
- TGI (MDA-MB-231 breast): > 90.4 µM
- TGI (OVCAR-4 ovarian): > 100 µM
- TGI (RXF 393 renal): 57 µM
- TGI (A549 NSCLC): 84.3 µM
- TGI (CCRF-CEM leukemia): > 78.8 µM
- TGI (LOX IMVI melanoma): 46.6 µM
- TGI (HT29 colon): > 100 µM
- TGI (CAKI-1 renal): > 88.6 µM
- TGI (SF-268 CNS): > 100 µM
- TGI (HCT-116 colon): 46.4 µM
- TGI (DU-145 prostate): > 100 µM
- TGI (SF-539 CNS): 56.1 µM
- TGI (SW-620 colon): > 100 µM
- TGI (RPMI-8226 leukemia): 80.3 µM
- TGI (A498 renal): 65.4 µM

SMILES: CC(CO)CCNc1ncnc2c1ncn2CCC#N (stereo unspecified)
- TGI (HS 578T breast): > 100 µM
- TGI (M14 melanoma): > 100 µM
- TGI (MOLT-4 leukemia): > 100 µM
- TGI (HL-60(TB) leukemia): > 100 µM
- TGI (MDA-N): > 100 µM
- TGI (NCI-H226 lung): > 100 µM
- TGI (NCI-H522 lung): > 100 µM
- TGI (NCI-H23 lung): > 100 µM
- TGI (UACC-62 melanoma): > 100 µM
- TGI (NCI-H460 lung): > 100 µM
- TGI (SK-MEL-5 melanoma): > 100 µM
- TGI (SNB-19 CNS): > 100 µM
- TGI (K-562 leukemia): > 100 µM
- TGI (HOP-62 NSCLC): > 100 µM
- TGI (SK-MEL-28 melanoma): > 100 µM
- TGI (HCC-2998 colon): > 100 µM
- TGI (EKVX NSCLC): > 100 µM
- TGI (OVCAR-5 ovarian): > 100 µM
- TGI (NCI/ADR-RES ovarian): > 100 µM
- TGI (OVCAR-8 ovarian): > 100 µM
- TGI (786-0 renal): > 100 µM
- TGI (UO-31 renal): > 100 µM
- TGI (OVCAR-3 ovarian): > 100 µM
- TGI (TK-10 renal): > 100 µM
- TGI (SF-295 CNS): > 100 µM
- TGI (ACHN renal): > 100 µM
- TGI (SNB-75 CNS): > 100 µM
- TGI (MCF7 breast): > 100 µM
- TGI (HOP-92 NSCLC): > 100 µM
- TGI (SR leukemia): > 100 µM
- TGI (PC-3 prostate): > 100 µM
- TGI (MDA-MB-435): > 100 µM
- TGI (IGROV1 ovarian): > 100 µM
- TGI (MALME-3M melanoma): > 100 µM
- TGI (SK-OV-3 ovarian): > 100 µM
- TGI (UACC-257 melanoma): > 100 µM
- TGI (KM12 colon): > 100 µM
- TGI (T-47D breast): > 100 µM
- TGI (SN12C renal): > 100 µM
- TGI (COLO 205 colon): > 100 µM
- TGI (MDA-MB-231 breast): > 100 µM
- TGI (OVCAR-4 ovarian): > 100 µM
- TGI (RXF 393 renal): > 100 µM
- TGI (A549 NSCLC): > 100 µM
- TGI (CCRF-CEM leukemia): > 100 µM
- TGI (LOX IMVI melanoma): > 100 µM
- TGI (HT29 colon): > 100 µM
- TGI (CAKI-1 renal): > 100 µM
- TGI (SF-268 CNS): > 100 µM
- TGI (HCT-116 colon): > 100 µM
- TGI (DU-145 prostate): > 100 µM
- TGI (SF-539 CNS): > 100 µM
- TGI (SW-620 colon): > 100 µM
- TGI (RPMI-8226 leukemia): > 100 µM
- TGI (A498 renal): > 100 µM
